Each structure is given as a SMILES string.

This experiment concerns bleomycin rat model of pulmonary fibrosis. Kind of experiment: Bleomycin rat model of pulmonary fibrosis, day 14, dexamethasone and/or test compound. Particulars: Dex 2.0 mg/kg every other day, test compound 40 mg/kg twice a day. The format is in vivo. The procedure: Rats were intubated with saline or 1 unit of bleomycin. After twenty four hours, rats were weighed and dosed with saline or 2.0 mg/kg of dexamethasone every other day and 1% methyl cellulose (MC) or 40 mg/kg of a test compound twice a day. On day 14, 1-3 hours after dosing, rat were sacrificed and lungs were inflated and collected for analysis.
The primary end points of the analysis were the total hydroxyproline concentration per lung and lung capacity. The secondary end point was the body weight.
The statistical analysis was done using one-way ANOVA with Bonferroni's Multiple Comparison Test.

`C[C@@H]1C[C@H]2[C@@H]3CCC4=CC(=O)C=C[C@]4(C)[C@@]3(F)[C@@H](O)C[C@]2(C)[C@@]1(O)C(=O)CO` [dexamethasone]: the “bleomycin-induced body weight loss” value was “no effect”.

For the origin of these results see US20040038856A1, “Treatment of fibroproliferative disorders using TGF-beta inhibitors” (priority 2002, published 2004).
